What was measured:
Experiment in all cases: radiometric filter-binding kinase assay, Kinase HotSpot
Conditions in all cases: compound 0.5 µM; ATP 10 µM
BMX (human) = BMX (human) (UniProt P51813)
BRSK2 (human) = BRSK2 (human) (UniProt Q8IWQ3)
BTK (human) = BTK (human) (UniProt Q06187)
CAMK1 (human) = CAMK1 (human) (UniProt Q14012)
CAMK1D (human) = CAMK1D (human) (UniProt Q8IU85)
CAMK1G (human) = CAMK1G (human) (UniProt Q96NX5)
CDK1 CCNB1 (human) = CDK1 CCNB1 (human) (UniProt P06493+P14635)
CDK2 CCNE1 (human) = CDK2 CCNE1 (human) (UniProt P24941+P24864)
CDK4 CCND3 (human) = CDK4 CCND3 (human) (UniProt P30281+P11802)
CDK9 CCNT1 (human) = CDK9 CCNT1 (human) (UniProt P50750+O60563)
Sequence of CDK9 CCNT1 (human) (O60563 whole entry, looked up): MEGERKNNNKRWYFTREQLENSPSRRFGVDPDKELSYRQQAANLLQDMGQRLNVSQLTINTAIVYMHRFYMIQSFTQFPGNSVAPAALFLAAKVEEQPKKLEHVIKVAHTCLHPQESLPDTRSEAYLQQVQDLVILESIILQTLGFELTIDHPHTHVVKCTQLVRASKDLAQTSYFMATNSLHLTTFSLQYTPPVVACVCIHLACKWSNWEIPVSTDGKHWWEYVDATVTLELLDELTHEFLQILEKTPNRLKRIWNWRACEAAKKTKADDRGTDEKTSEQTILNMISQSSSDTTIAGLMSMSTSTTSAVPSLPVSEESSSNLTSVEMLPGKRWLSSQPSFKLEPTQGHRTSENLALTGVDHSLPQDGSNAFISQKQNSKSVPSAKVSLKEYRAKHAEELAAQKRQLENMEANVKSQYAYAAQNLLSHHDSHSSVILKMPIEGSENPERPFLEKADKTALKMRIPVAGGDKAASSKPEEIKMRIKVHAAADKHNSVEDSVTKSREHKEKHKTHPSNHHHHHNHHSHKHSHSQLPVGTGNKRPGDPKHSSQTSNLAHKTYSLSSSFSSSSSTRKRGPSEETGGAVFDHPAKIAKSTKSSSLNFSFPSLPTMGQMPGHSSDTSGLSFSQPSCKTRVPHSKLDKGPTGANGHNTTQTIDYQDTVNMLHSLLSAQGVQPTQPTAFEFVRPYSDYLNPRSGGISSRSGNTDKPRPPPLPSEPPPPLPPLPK
Sequence of CDK9 CCNT1 (human) (P50750 whole entry, looked up): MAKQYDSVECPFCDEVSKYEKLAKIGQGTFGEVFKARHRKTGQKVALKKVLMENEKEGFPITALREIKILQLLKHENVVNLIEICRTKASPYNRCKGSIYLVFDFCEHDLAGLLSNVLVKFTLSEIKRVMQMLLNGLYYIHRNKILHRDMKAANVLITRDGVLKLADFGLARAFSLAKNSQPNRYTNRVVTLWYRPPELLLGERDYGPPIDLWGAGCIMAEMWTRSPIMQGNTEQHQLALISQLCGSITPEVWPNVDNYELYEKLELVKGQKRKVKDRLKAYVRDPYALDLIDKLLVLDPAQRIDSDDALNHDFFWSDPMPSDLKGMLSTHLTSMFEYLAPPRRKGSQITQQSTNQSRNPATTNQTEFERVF

CSNK2A1 (human) = CSNK2A1 (human) (UniProt P68400)
FER (human) = FER (human) (UniProt P16591)
FGR (human) = FGR (human) (UniProt P09769)
HIPK3 (human) = HIPK3 (human) (UniProt Q9H422)
INSR (human) = INSR (human) (UniProt P06213)
IRAK4 (human) = IRAK4 (human) (UniProt Q9NWZ3)
KIT (human) = KIT (human) (UniProt P10721)
LRRK2 (human) = LRRK2 (human) (UniProt Q5S007)
Sequence of LRRK2 (human) (Q5S007 whole entry, looked up): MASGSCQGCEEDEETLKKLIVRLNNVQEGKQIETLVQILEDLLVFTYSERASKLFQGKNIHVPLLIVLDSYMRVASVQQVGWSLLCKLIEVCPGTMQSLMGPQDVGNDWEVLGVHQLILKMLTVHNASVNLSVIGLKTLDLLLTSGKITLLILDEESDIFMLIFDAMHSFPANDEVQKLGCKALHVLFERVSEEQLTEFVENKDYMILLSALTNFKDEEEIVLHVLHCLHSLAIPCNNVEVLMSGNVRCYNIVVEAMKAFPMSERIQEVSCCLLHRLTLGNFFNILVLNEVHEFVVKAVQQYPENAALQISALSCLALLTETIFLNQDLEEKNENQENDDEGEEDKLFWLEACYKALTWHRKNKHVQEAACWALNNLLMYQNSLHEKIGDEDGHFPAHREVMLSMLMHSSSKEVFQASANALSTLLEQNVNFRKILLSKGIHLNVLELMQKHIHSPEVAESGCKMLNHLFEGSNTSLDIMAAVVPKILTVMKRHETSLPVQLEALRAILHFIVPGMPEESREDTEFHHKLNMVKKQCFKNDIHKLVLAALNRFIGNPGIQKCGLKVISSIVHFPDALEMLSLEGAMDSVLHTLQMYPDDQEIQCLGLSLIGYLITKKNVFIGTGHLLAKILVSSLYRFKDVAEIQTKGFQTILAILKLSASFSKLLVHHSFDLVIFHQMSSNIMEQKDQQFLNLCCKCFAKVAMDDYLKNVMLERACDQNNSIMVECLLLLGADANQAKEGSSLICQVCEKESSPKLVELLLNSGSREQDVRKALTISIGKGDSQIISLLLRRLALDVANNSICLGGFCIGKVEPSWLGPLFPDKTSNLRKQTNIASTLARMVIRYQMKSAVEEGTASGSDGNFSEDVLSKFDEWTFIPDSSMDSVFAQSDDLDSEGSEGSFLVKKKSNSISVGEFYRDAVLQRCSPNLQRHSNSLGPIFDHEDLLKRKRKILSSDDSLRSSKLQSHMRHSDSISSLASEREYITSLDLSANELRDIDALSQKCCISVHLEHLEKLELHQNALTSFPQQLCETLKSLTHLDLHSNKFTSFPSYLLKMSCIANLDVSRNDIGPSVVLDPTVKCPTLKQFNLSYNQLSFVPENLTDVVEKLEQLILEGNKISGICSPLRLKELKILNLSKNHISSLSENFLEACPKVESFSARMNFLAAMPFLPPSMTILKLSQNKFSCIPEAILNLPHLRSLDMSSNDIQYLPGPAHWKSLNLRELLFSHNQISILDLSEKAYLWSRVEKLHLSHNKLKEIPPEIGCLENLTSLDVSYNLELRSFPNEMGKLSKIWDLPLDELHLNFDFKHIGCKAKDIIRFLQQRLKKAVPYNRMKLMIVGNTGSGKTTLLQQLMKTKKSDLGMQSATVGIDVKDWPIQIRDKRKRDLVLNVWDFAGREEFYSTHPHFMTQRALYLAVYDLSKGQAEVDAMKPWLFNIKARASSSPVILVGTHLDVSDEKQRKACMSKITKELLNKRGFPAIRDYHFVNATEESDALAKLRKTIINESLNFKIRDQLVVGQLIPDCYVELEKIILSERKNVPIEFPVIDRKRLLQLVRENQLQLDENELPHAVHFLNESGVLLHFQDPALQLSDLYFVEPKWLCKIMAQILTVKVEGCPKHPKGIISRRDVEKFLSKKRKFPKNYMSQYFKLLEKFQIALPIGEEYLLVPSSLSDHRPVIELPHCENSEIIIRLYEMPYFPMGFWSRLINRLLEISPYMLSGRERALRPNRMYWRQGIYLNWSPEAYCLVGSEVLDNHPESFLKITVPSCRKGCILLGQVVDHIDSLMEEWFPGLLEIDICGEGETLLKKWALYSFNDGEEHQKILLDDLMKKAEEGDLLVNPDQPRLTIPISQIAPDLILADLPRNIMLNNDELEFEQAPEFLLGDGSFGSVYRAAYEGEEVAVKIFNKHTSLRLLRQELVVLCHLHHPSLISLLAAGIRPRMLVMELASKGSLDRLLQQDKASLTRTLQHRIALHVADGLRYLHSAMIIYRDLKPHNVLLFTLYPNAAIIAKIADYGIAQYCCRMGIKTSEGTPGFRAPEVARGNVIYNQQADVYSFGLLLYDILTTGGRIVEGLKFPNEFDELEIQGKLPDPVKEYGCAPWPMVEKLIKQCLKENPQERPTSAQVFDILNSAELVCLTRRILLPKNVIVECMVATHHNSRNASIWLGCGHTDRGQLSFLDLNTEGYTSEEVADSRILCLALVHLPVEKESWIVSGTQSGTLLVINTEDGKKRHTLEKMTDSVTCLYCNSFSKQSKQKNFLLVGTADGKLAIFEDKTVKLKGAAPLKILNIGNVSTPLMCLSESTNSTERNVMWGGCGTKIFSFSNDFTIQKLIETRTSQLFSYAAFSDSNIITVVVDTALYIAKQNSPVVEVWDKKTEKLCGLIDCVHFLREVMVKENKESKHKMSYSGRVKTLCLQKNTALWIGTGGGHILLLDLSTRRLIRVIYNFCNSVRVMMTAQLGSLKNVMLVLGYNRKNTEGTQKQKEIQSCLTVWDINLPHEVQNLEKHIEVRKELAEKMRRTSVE

MAP2K2 (human) = MAP2K2 (human) (UniProt P36507)
[1] = system: MAP2K6 (human), P52564 [S207E/T211E]
MAP3K2 (human) = MAP3K2 (human) (UniProt Q9Y2U5)
MAPK10 (human) = MAPK10 (human) (UniProt P53779)
MAPK11 (human) = MAPK11 (human) (UniProt Q15759)
MAPK14 (human) = MAPK14 (human) (UniProt Q16539)
Sequence of MAPK14 (human) (Q16539 whole entry, looked up): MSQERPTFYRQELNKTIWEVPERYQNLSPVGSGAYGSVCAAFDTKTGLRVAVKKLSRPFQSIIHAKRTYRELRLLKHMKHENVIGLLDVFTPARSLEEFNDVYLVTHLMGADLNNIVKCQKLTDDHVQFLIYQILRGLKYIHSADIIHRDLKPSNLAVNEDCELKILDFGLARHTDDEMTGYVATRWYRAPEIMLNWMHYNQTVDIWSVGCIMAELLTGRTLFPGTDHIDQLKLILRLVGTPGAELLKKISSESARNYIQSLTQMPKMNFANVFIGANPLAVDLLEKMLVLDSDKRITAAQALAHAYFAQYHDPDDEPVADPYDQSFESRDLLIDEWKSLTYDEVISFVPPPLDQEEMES

MARK4 (human) = MARK4 (human) (UniProt Q96L34)
[2] = system: MKNK1 (human), Q9BUB5 [T385D; 165-205 del]
NEK1 (human) = NEK1 (human) (UniProt Q96PY6)
NEK2 (human) = NEK2 (human) (UniProt P51955)
PAK2 (human) = PAK2 (human) (UniProt Q13177)
PKN1 (human) = PKN1 (human) (UniProt Q16512)
PKN2 (human) = PKN2 (human) (UniProt Q16513)
[3] = system: PRKCQ (human), Q04759 [P330L]
PTK6 (human) = PTK6 (human) (UniProt Q13882)
SRC (human) = SRC (human) (UniProt P12931)
SRPK2 (human) = SRPK2 (human) (UniProt P78362)
STK10 (human) = STK10 (human) (UniProt O94804)
Sequence of STK10 (human) (O94804 whole entry, looked up): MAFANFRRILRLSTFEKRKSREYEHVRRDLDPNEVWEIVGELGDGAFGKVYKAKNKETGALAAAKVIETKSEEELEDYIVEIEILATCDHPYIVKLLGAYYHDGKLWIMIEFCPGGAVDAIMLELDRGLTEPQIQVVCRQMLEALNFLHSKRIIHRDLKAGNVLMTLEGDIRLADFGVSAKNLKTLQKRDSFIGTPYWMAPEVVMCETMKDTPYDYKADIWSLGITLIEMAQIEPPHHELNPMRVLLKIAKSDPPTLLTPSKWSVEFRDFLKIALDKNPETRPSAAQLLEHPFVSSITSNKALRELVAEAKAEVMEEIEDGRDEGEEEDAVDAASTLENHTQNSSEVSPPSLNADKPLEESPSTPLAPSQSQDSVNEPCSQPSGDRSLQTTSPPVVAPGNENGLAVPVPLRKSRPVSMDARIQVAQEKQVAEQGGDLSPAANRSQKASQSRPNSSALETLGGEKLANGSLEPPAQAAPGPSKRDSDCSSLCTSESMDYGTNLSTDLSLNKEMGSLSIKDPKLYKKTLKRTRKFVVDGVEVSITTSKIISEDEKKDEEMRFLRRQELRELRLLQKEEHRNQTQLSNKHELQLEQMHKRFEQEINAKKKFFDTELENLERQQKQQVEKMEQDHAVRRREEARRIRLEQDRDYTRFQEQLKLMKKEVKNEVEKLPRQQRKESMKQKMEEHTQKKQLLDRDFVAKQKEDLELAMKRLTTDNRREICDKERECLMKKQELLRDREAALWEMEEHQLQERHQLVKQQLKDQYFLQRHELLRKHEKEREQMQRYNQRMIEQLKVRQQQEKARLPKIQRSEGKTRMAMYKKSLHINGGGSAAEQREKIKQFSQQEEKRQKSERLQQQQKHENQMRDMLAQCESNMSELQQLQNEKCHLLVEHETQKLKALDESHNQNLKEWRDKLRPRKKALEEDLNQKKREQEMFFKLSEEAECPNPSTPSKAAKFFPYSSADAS

STK11 (human) = STK11 (human) (UniProt Q15831)
STK16 (human) = STK16 (human) (UniProt O75716)
STK17A (human) = STK17A (human) (UniProt Q9UEE5)
TBK1 (human) = TBK1 (human) (UniProt Q9UHD2)
ZAP70 (human) = ZAP70 (human) (UniProt P43403)

With `Cc1nc(-c2ccccc2)c(-c2ccncc2)o1` the residual activity (BMX (human)) was 102%, the residual activity (BRSK2 (human)) was 95% and the residual activity (BTK (human)) was 98.3%. For the same molecule, the residual activity (CAMK1 (human)) was 105%, the residual activity (CAMK1D (human)) was 93.9% and the residual activity (CAMK1G (human)) was 92.8%. It also gave a residual activity (CDK1 CCNB1 (human)) of 90.8%, a residual activity (CDK2 CCNE1 (human)) of 93.4% and a residual activity (CDK4 CCND3 (human)) of 107%. It also gave a residual activity (CDK9 CCNT1 (human)) of 84.6%, a residual activity (CSNK2A1 (human)) of 109% and a residual activity (FER (human)) of 84.9%. For the same molecule, the residual activity (FGR (human)) was 89.7%, the residual activity (HIPK3 (human)) was 107% and the residual activity (INSR (human)) was 85.6%. The residual activity (IRAK4 (human)) was 107%, the residual activity (KIT (human)) was 93.7% and the residual activity (LRRK2 (human)) was 96.8%. For the same molecule, the residual activity (MAP2K2 (human)) was 106%, the residual activity [1] was 99.3% and the residual activity (MAP3K2 (human)) was 102%. For the same molecule, the residual activity (MAPK10 (human)) was 101%, the residual activity (MAPK11 (human)) was 101% and the residual activity (MAPK14 (human)) was 76.3%. For the same molecule, the residual activity (MARK4 (human)) was 103%, the residual activity [2] was 123% and the residual activity (NEK1 (human)) was 103%. It also gave a residual activity (NEK2 (human)) of 116%, a residual activity (PAK2 (human)) of 82.3% and a residual activity (PKN1 (human)) of 101%. It also gave a residual activity (PKN2 (human)) of 93.4%, a residual activity [3] of 120% and a residual activity (PTK6 (human)) of 86%. It also gave a residual activity (SRC (human)) of 96.2%, a residual activity (SRPK2 (human)) of 92.3% and a residual activity (STK10 (human)) of 96.9%. The residual activity (STK11 (human)) was 98.4%, the residual activity (STK16 (human)) was 109% and the residual activity (STK17A (human)) was 99.5%. For the same molecule, the residual activity (TBK1 (human)) was 88% and the residual activity (ZAP70 (human)) was 98.8%.
For `CC(C)(C)c1cc(C=C(C#N)C#N)cc(Br)c1O`, the residual activity (BMX (human)) was 113%, the residual activity (BRSK2 (human)) was 94.5% and the residual activity (BTK (human)) was 101%. It also gave a residual activity (CAMK1 (human)) of 97.5%, a residual activity (CAMK1D (human)) of 111% and a residual activity (CAMK1G (human)) of 104%. For the same molecule, the residual activity (CDK1 CCNB1 (human)) was 72.6%, the residual activity (CDK2 CCNE1 (human)) was 77.6% and the residual activity (CDK4 CCND3 (human)) was 96.5%. The residual activity (CDK9 CCNT1 (human)) was 95.4%, the residual activity (CSNK2A1 (human)) was 99.3% and the residual activity (FER (human)) was 100%. The residual activity (FGR (human)) was 75.4%, the residual activity (HIPK3 (human)) was 98.2% and the residual activity (INSR (human)) was 105%. It also gave a residual activity (IRAK4 (human)) of 182%, a residual activity (KIT (human)) of 97.9% and a residual activity (LRRK2 (human)) of 109%. The residual activity (MAP2K2 (human)) was 85.8%, the residual activity [1] was 107% and the residual activity (MAP3K2 (human)) was 93.7%. It also gave a residual activity (MAPK10 (human)) of 92.5%, a residual activity (MAPK11 (human)) of 100% and a residual activity (MAPK14 (human)) of 98.3%. For the same molecule, the residual activity (MARK4 (human)) was 103%, the residual activity [2] was 95.9% and the residual activity (NEK1 (human)) was 97.7%. The residual activity (NEK2 (human)) was 96%, the residual activity (PAK2 (human)) was 96.5% and the residual activity (PKN1 (human)) was 94.5%. It also gave a residual activity (PKN2 (human)) of 64.3%, a residual activity [3] of 98% and a residual activity (PTK6 (human)) of 91.4%. For the same molecule, the residual activity (SRC (human)) was 87.4%, the residual activity (SRPK2 (human)) was 109% and the residual activity (STK10 (human)) was 95.4%. It also gave a residual activity (STK11 (human)) of 85.2%, a residual activity (STK16 (human)) of 99.2% and a residual activity (STK17A (human)) of 92.3%. It also gave a residual activity (TBK1 (human)) of 90.2% and a residual activity (ZAP70 (human)) of 91.6%.
Molecule `Cn1c2ccccc2c2c3c(c4c5ccccc5n(CCC#N)c4c21)CNC3=O` has a residual activity (BMX (human)) of 13.7%, a residual activity (BRSK2 (human)) of 26.3% and a residual activity (BTK (human)) of 22%. The residual activity (CAMK1 (human)) was 94.2%, the residual activity (CAMK1D (human)) was 82.4% and the residual activity (CAMK1G (human)) was 101%. The residual activity (CDK1 CCNB1 (human)) was 38.7%, the residual activity (CDK2 CCNE1 (human)) was 27.8% and the residual activity (CDK4 CCND3 (human)) was 44.5%. For the same molecule, the residual activity (CDK9 CCNT1 (human)) was 46.8%, the residual activity (CSNK2A1 (human)) was 73.1% and the residual activity (FER (human)) was 5.9%. For the same molecule, the residual activity (FGR (human)) was 70.7%, the residual activity (HIPK3 (human)) was 29.8% and the residual activity (INSR (human)) was 89.3%. It also gave a residual activity (IRAK4 (human)) of 63.5%, a residual activity (KIT (human)) of 96.9% and a residual activity (LRRK2 (human)) of 30.5%. It also gave a residual activity (MAP2K2 (human)) of 92.5%, a residual activity [1] of 21.1% and a residual activity (MAP3K2 (human)) of 2.96%. The residual activity (MAPK10 (human)) was 94.5%, the residual activity (MAPK11 (human)) was 99.5% and the residual activity (MAPK14 (human)) was 93.5%. For the same molecule, the residual activity (MARK4 (human)) was 10.8%, the residual activity [2] was 75.2% and the residual activity (NEK1 (human)) was 62.9%. The residual activity (NEK2 (human)) was 89.9%, the residual activity (PAK2 (human)) was 91.7% and the residual activity (PKN1 (human)) was 10.3%. The residual activity (PKN2 (human)) was 67.7%, the residual activity [3] was 76.3% and the residual activity (PTK6 (human)) was 38.7%. It also gave a residual activity (SRC (human)) of 74.8%, a residual activity (SRPK2 (human)) of 95% and a residual activity (STK10 (human)) of 20.1%. The residual activity (STK11 (human)) was 31.8%, the residual activity (STK16 (human)) was 81.1% and the residual activity (STK17A (human)) was 85.3%. The residual activity (TBK1 (human)) was 72.1% and the residual activity (ZAP70 (human)) was 77.7%.

Source: the kinase profiling compilation of Christmann-Franck et al. (2016)
